Data: ChEMBL document CHEMBL1201862, “PubChem BioAssay data set” (2004)
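Each compound was tested at five concentrations against cells in 96-well plates for 48 hours. The concentration for 50% growth inhibition is given as GI50.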 Activity calls are given as the source filed them. No stated cut-off is given here; in the data, active = GI50 up to about 1.1 µM and inactive = higher.

Assays:
Assay in all cases: NCI anticancer screen, dose series, 48 h
[1] = system: RPMI-8226
[2] = system: HOP-62
[3] = system: OVCAR-8
[4] = system: SF-268
[5] = system: LOX IMVI
[6] = system: PC-3
[7] = system: SK-MEL-5
[8] = system: MDA-MB-231
[9] = system: HOP-92
[10] = system: NCI-H23
[11] = system: SK-MEL-28
[12] = system: Malme-3M
[13] = system: CAKI-1
[14] = system: U-251
[15] = system: IGROV-1
[16] = system: ACHN
[17] = system: HCC 2998
[18] = system: SK-OV-3
[19] = system: NCI-H226

Question: What does the source list for `COc1cc(/C=C/C(=O)C2(C(=O)/C=C/c3cc(OC)c(OC)c(OC)c3)CCCCC2)cc(OC)c1OC`?
Answer: GI50 [1]: 18.3 µM (inactive); GI50 [2]: 55.6 µM (inactive); GI50 [3]: 24.1 µM (inactive); GI50 [4]: 40.5 µM (inactive); GI50 [5]: 38.7 µM (inactive); GI50 [6]: 27.2 µM (inactive); GI50 [7]: 34.8 µM (inactive); GI50 [8]: 42.9 µM (inactive); GI50 [9]: 1.22 µM (inactive); GI50 [10]: 53.3 µM (inactive); GI50 [11]: 46.3 µM (inactive); GI50 [12]: 37.6 µM (inactive); GI50 [13]: 49.4 µM (inactive); GI50 [14]: 30.1 µM (inactive); GI50 [15]: 27.4 µM (inactive); GI50 [16]: 62.1 µM (inactive); GI50 [17]: 58.6 µM (inactive); GI50 [18]: 68.9 µM (inactive); GI50 [19]: 32.7 µM (inactive)

Question: Which GI50 [1] does the source give for `CNc1ncnc2c1cnn2Cc1cn(COCC(O)CO)nn1` (stereo not given) here?
Answer: > 100 µM (inactive)

Question: And the GI50 [2]?
Answer: > 100 µM (inactive)

Question: And the GI50 [3]?
Answer: > 100 µM (inactive)

Question: And the GI50 [4]?
Answer: 4.97 µM (inactive)

Question: What about the GI50 [5] of the same compound?
Answer: > 100 µM (inactive)

Question: What about the GI50 [6] of the same compound?
Answer: > 100 µM (inactive)

Question: And the GI50 [7]?
Answer: > 100 µM (inactive)

Question: And the GI50 [8]?
Answer: > 100 µM (inactive)

Question: And the GI50 [9]?
Answer: 59.4 µM (inactive)

Question: And the GI50 [10]?
Answer: > 100 µM (inactive)

Question: And the GI50 [11]?
Answer: > 100 µM (inactive)

Question: What about the GI50 [13] of the same compound?
Answer: > 100 µM (inactive)

Question: And the GI50 [14]?
Answer: > 100 µM (inactive)

Question: What about the GI50 [15] of the same compound?
Answer: > 100 µM (inactive)

Question: And the GI50 [16]?
Answer: > 100 µM (inactive)

Question: And the GI50 [17]?
Answer: > 100 µM (inactive)

Question: What about the GI50 [18] of the same compound?
Answer: > 100 µM (inactive)

Question: What about the GI50 [19] of the same compound?
Answer: > 100 µM (inactive)

Question: How did the GI50 [1] turn out when `N=C(N)NS(=O)(=O)c1ccc(NC(=O)c2c3ccccc3nc3ccccc23)cc1` was run?
Answer: > 100 µM (inactive)

Question: And the GI50 [2]?
Answer: > 100 µM (inactive)

Question: What about the GI50 [3] of the same compound?
Answer: > 100 µM (inactive)

Question: What about the GI50 [4] of the same compound?
Answer: > 100 µM (inactive)

Question: What about the GI50 [5] of the same compound?
Answer: > 100 µM (inactive)

Question: And the GI50 [6]?
Answer: > 100 µM (inactive)

Question: And the GI50 [7]?
Answer: > 100 µM (inactive)

Question: What about the GI50 [8] of the same compound?
Answer: > 100 µM (inactive)

Question: And the GI50 [9]?
Answer: > 100 µM (inactive)

Question: What about the GI50 [10] of the same compound?
Answer: > 100 µM (inactive)

Question: What about the GI50 [11] of the same compound?
Answer: > 100 µM (inactive)

Question: What about the GI50 [12] of the same compound?
Answer: > 100 µM (inactive)

Question: What about the GI50 [13] of the same compound?
Answer: > 100 µM (inactive)

Question: And the GI50 [14]?
Answer: > 100 µM (inactive)

Question: What about the GI50 [15] of the same compound?
Answer: > 100 µM (inactive)

Question: And the GI50 [16]?
Answer: > 100 µM (inactive)

Question: What about the GI50 [17] of the same compound?
Answer: > 100 µM (inactive)

Question: What about the GI50 [18] of the same compound?
Answer: > 100 µM (inactive)

Question: And the GI50 [19]?
Answer: 43.1 µM (inactive)

Question: With `Cc1nc2ccc(S(=O)(=O)Nc3ccccc3)cc2c(=O)n1NC(=O)CNc1ccccc1` as the compound, how does the GI50 [1] read?
Answer: > 100 µM (inactive)

Question: What about the GI50 [2] of the same compound?
Answer: 73.5 µM (inactive)

Question: And the GI50 [3]?
Answer: > 100 µM (inactive)

Question: What about the GI50 [4] of the same compound?
Answer: > 100 µM (inactive)

Question: What about the GI50 [5] of the same compound?
Answer: > 100 µM (inactive)

Question: What about the GI50 [6] of the same compound?
Answer: > 100 µM (inactive)

Question: What about the GI50 [8] of the same compound?
Answer: > 100 µM (inactive)

Question: What about the GI50 [9] of the same compound?
Answer: > 100 µM (inactive)

Question: And the GI50 [10]?
Answer: > 100 µM (inactive)

Question: And the GI50 [11]?
Answer: > 100 µM (inactive)

Question: And the GI50 [12]?
Answer: > 100 µM (inactive)

Question: And the GI50 [13]?
Answer: > 100 µM (inactive)

Question: And the GI50 [14]?
Answer: > 100 µM (inactive)

Question: And the GI50 [15]?
Answer: 67.3 µM (inactive)

Question: And the GI50 [16]?
Answer: > 100 µM (inactive)

Question: What about the GI50 [17] of the same compound?
Answer: > 100 µM (inactive)

Question: What about the GI50 [18] of the same compound?
Answer: > 100 µM (inactive)

Question: What about the GI50 [19] of the same compound?
Answer: > 100 µM (inactive)

Question: `CCCC[C@@H]1CCN2C[C@@H](O)[C@@H](O)[C@H]2[C@@H]1O` was tested. Which GI50 [1] did it give?
Answer: > 100 µM (inactive)

Question: What about the GI50 [3] of the same compound?
Answer: > 100 µM (inactive)

Question: What about the GI50 [4] of the same compound?
Answer: > 100 µM (inactive)

Question: What about the GI50 [5] of the same compound?
Answer: > 100 µM (inactive)

Question: And the GI50 [6]?
Answer: > 100 µM (inactive)

Question: And the GI50 [7]?
Answer: > 100 µM (inactive)

Question: And the GI50 [8]?
Answer: > 100 µM (inactive)

Question: And the GI50 [9]?
Answer: > 100 µM (inactive)

Question: What about the GI50 [10] of the same compound?
Answer: > 100 µM (inactive)

Question: And the GI50 [11]?
Answer: > 100 µM (inactive)

Question: What about the GI50 [12] of the same compound?
Answer: > 100 µM (inactive)

Question: What about the GI50 [13] of the same compound?
Answer: > 100 µM (inactive)

Question: And the GI50 [14]?
Answer: > 100 µM (inactive)

Question: What about the GI50 [15] of the same compound?
Answer: > 100 µM (inactive)

Question: And the GI50 [16]?
Answer: > 100 µM (inactive)

Question: And the GI50 [17]?
Answer: > 100 µM (inactive)

Question: And the GI50 [18]?
Answer: > 100 µM (inactive)

Question: And the GI50 [19]?
Answer: > 100 µM (inactive)

Question: Which results are given for `O=c1cc(-c2ccc(O)cc2)oc2cc(O[C@@H]3O[C@H](CO)[C@@H](O)[C@H](O)[C@H]3O)cc(O)c12` [APIGETRIN]?
Answer: GI50 [1]: > 100 µM (inactive); GI50 [2]: > 100 µM (inactive); GI50 [3]: 31.7 µM (inactive); GI50 [4]: 51.3 µM (inactive); GI50 [5]: 33.1 µM (inactive); GI50 [6]: 33.2 µM (inactive); GI50 [7]: 46 µM (inactive); GI50 [8]: 86.1 µM (inactive); GI50 [9]: 83.9 µM (inactive); GI50 [10]: 50.8 µM (inactive); GI50 [11]: 98.4 µM (inactive); GI50 [13]: 0.239 µM (active); GI50 [14]: 71 µM (inactive); GI50 [15]: 57.9 µM (inactive); GI50 [16]: 26.2 µM (inactive); GI50 [17]: 36.1 µM (inactive); GI50 [18]: > 100 µM (inactive); GI50 [19]: 26.7 µM (inactive)
